In patent US12662490B2, “Heterocyclic compounds” (Hoffmann-La Roche Inc., priority 2019, dated 2026):

Target: T1, MAGL (Homo sapiens, UniProt Q99685)
T1 sequence (Q99685 1-303): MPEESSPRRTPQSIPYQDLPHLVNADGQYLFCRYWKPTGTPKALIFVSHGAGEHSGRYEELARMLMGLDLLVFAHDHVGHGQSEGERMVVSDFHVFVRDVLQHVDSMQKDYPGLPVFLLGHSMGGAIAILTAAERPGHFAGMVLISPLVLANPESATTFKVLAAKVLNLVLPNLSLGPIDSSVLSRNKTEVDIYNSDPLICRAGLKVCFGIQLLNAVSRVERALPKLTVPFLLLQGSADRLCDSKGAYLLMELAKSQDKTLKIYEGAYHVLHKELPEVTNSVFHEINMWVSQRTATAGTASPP
Assay: 2-AG assay (MAGL inhibitory activity; hydrolysis of 2-arachidonoylglycerol to arachidonic acid followed by mass spectrometry)
Type: biochemical
Settings: 15 min preincubation at RT, 8 μM 2-arachidonoylglycerol, 30 min at RT, RapidFire MS readout
In short: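 Compounds (final 12.5 μM to […], 3-fold steps) preincubated 15 min at RT with MAGL ([…]) in 50 mM TRIS, 1 mM EDTA, Tween buffer. Reaction started with 8 μM 2-arachidonoylglycerol, run 30 min at RT, quenched with ACN containing d8-arachidonic acid. Arachidonic acid quantified by RapidFire SPE-triple quadrupole MS (negative ESI), activity from arachidonic acid/d8 ratio.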

Structure (SMILES): COc1cccc(C(=O)N2CCN3CC(c4ccc(F)c(-c5cnco5)c4)OC[C@@H]3C2)c1Cl (stereo partly drawn) [Example 145, [(9aS)-3-(4-fluoro-3-oxazol-5-yl-phenyl)-3,4,6,7,9,9a-hexahydro-1H-pyrazino[2,1-c][1,4]oxazin-8-yl]-(2-chloro-3-methoxy-phenyl)methanone]
- IC50: 363 nM

Structure (SMILES): COc1cccc(C(=O)N2CCN3C[C@@](O)(c4nc5ccccc5s4)OC[C@@H]3C2)c1Cl [Example 146, [(3S,9aS)-3-(1,3-benzothiazol-2-yl)-3-hydroxy-1,4,6,7,9,9a-hexahydropyrazino[2,1-c][1,4]oxazin-8-yl]-(2-chloro-3-methoxy-phenyl)methanone]
- IC50: 378 nM

Structure (SMILES): COc1ccc(F)c(C(=O)N2CCN3C[C@@H](c4cc(Cl)c[nH]c4=O)OC[C@@H]3C2)c1Cl [Example 147, 3-[(3R,9aS)-8-(2-chloro-6-fluoro-3-methoxy-benzoyl)-3,4,6,7,9,9a-hexahydro-1H-pyrazino[2,1-c][1,4]oxazin-3-yl]-5-chloro-1H-pyridin-2-one]
- IC50: 385 nM

Structure (SMILES): COc1cccc(C(=O)N2CCN3C[C@@H](c4ccc(Cl)c(C(F)(F)F)n4)OC[C@@H]3C2)c1Cl [Example 148, [(3S,9aS)-3-[5-chloro-6-(trifluoromethyl)-2-pyridyl]-3,4,6,7,9,9a-hexahydro-1H-pyrazino[2,1-c][1,4]oxazin-8-yl]-(2-chloro-3-methoxy-phenyl)methanone]
- IC50: 426 nM

Structure (SMILES): COc1cccc(C(=O)N2CCN3C[C@@H](c4cccc(F)c4F)OC[C@@H]3C2)c1Cl [Example 149, [(3R,9aS)-3-(2,3-difluorophenyl)-3,4,6,7,9,9a-hexahydro-1H-pyrazino[2,1-c][1,4]oxazin-8-yl]-(2-chloro-3-methoxy-phenyl)methanone]
- IC50: 468 nM

Structure (SMILES): COc1cccc(C(=O)N2CCN3C[C@@](O)(c4ccccc4Cl)OC[C@@H]3C2)c1Cl [Example 150, [(3R,9aS)-3-(2-chlorophenyl)-3-hydroxy-1,4,6,7,9,9a-hexahydropyrazino[2,1-c][1,4]oxazin-8-yl]-(2-chloro-3-methoxy-phenyl)methanone]
- IC50: 546 nM

Structure (SMILES): N#Cc1cc(-c2cc(F)cc(C(=O)N3CCN4C[C@H](c5c[nH]c(C(F)(F)F)cc5=O)OC[C@@H]4C3)c2Cl)c[nH]1 [Example 151, 4-[3-[(3S,9aS)-3-[4-oxo-6-(trifluoromethyl)-1H-pyridin-3-yl]-3,4,6,7,9,9a-hexahydro-1H-pyrazino[2,1-c][1,4]oxazine-8-carbonyl]-2-chloro-5-fluoro-phenyl]-1H-pyrrole-2-carbonitrile]
- IC50: 575 nM

Structure (SMILES): N#Cc1ncc(-c2cccc(C(=O)N3CCN4C[C@@](O)(c5ccc(F)c(F)c5)OC[C@@H]4C3)c2Cl)[nH]1 [Example 152, 5-[3-[(3R,9aS)-3-(3,4-difluorophenyl)-3-hydroxy-1,4,6,7,9,9a-hexahydropyrazino[2,1-c][1,4]oxazine-8-carbonyl]-2-chloro-phenyl]-1H-imidazole-2-carbonitrile]
- IC50: 581 nM

Structure (SMILES): COc1cccc(C(=O)N2CCN3C[C@@](O)(c4ccc(C(F)(F)F)nc4C)OC[C@@H]3C2)c1Cl [Example 153, [(3R,9aS)-3-hydroxy-3-[2-methyl-6-(trifluoromethyl)-3-pyridyl]-1,4,6,7,9,9a-hexahydropyrazino[2,1-c][1,4]oxazin-8-yl]-(2-chloro-3-methoxy-phenyl)methanone]
- IC50: 705 nM

Structure (SMILES): COc1cccc(C(=O)N2CCN3C[C@@](O)(c4cc(Cl)cc(-c5cnco5)c4)OC[C@@H]3C2)c1Cl [Example 154, [(3R,9aS)-3-(3-chloro-5-oxazol-5-yl-phenyl)-3-hydroxy-1,4,6,7,9,9a-hexahydropyrazino[2,1-c][1,4]oxazin-8-yl]-(2-chloro-3-methoxy-phenyl)methanone]
- IC50: 769 nM

Structure (SMILES): COc1cccc(C(=O)N2CCN3C[C@@H](c4ccc(C(F)(F)F)[nH]c4=O)OC[C@@H]3C2)c1Cl [Example 155, 3-[(3R,9aS)-8-(2-chloro-3-methoxy-benzoyl)-3,4,6,7,9,9a-hexahydro-1H-pyrazino[2,1-c][1,4]oxazin-3-yl]-6-(trifluoromethyl)-1H-pyridin-2-one]
- IC50: 780 nM

Structure (SMILES): COc1cccc(C(=O)N2CCN3CC(c4ccc(F)c(-c5ccn(C)c5)c4)OC[C@@H]3C2)c1Cl (stereo partly drawn) [Example 156, [(9aS)-3-[4-fluoro-3-(1-methylpyrrol-3-yl)phenyl]-3,4,6,7,9,9a-hexahydro-1H-pyrazino[2,1-c][1,4]oxazin-8-yl]-(2-chloro-3-methoxy-phenyl)methanone]
- IC50: 815 nM

Structure (SMILES): COc1cccc(C(=O)N2CCN3C[C@@](O)(c4cc(Br)no4)OC[C@@H]3C2)c1Cl [Example 157, [(3S,9aS)-3-(3-bromoisoxazol-5-yl)-3-hydroxy-1,4,6,7,9,9a-hexahydropyrazino[2,1-c][1,4]oxazin-8-yl]-(2-chloro-3-methoxy-phenyl)methanone]
- IC50: 849 nM

Structure (SMILES): O=C(c1cccc(-c2c[nH]ncc2=O)c1Cl)N1CCN2C[C@@H](c3ccc(F)c(Cl)c3)OC[C@@H]2C1 [Example 158, 5-[3-[(3R,9aS)-3-(3-chloro-4-fluoro-phenyl)-3,4,6,7,9,9a-hexahydro-1H-pyrazino[2,1-c][1,4]oxazine-8-carbonyl]-2-chloro-phenyl]-1H-pyridazin-4-one]
- IC50: 1020 nM

Structure (SMILES): COc1ccc(F)c(C(=O)N2CCN3C[C@H](c4ccc(F)c(Cl)c4)OC[C@@H]3C2)c1Cl [Example 159, [(3S,9aS)-3-(3-chloro-4-fluoro-phenyl)-3,4,6,7,9,9a-hexahydro-1H-pyrazino[2,1-c][1,4]oxazin-8-yl]-(2-chloro-6-fluoro-3-methoxy-phenyl)methanone]
- IC50: 1480 nM

Structure (SMILES): COc1ccc(-c2nc([C@]3(O)CN4CCN(C(=O)c5cccc(OC)c5Cl)C[C@H]4CO3)cs2)cn1 [Example 160, [(3S,9aS)-3-hydroxy-3-[2-(6-methoxy-3-pyridyl)thiazol-4-yl]-1,4,6,7,9,9a-hexahydropyrazino[2,1-c][1,4]oxazin-8-yl]-(2-chloro-3-methoxy-phenyl)methanone]
- IC50: 1600 nM
